# Values quoted from earlier work as cited in patent US5744455A (priority 1993, dated 1998).
# Where two headings read alike, the source gives them in different places.
# Experiments:
# [1] = tested on: human tumors; conditions: single agents
# [2] = tested on: doxorubicin cardiotoxicity; conditions: non-cancer-bearing animals
# [3] = tested on: erythrocyte ghost
# [4] = tested on: doxorubicin-induced toxicity; conditions: humans and other species
# [5] = not given; remark: listed apart in the source
# [6] = tested on: cardiac glutathione peroxidase
# [7] = not given; remark: listed apart in the source
# [8] = tested on: myocardial lesions; conditions: doxorubicin alone
# [9] = tested on: daunorubicin cardiotoxicity; conditions: ICRF 187 given prior to daunorubicin
# [10] = tested on: chronic daunorubicin cardiotoxicity; conditions: 30 minutes prior to daunorubicin, 12.5 and 25 mg/kg
# [11] = tested on: chronic cardiotoxicity induced by Adriamycin; conditions: ICRF 187 12.5 mg/kg 30 minutes prior to Adriamycin 1.0 mg/kg
# [12] = tested on: heart lesions; conditions: doxorubicin and ICRF 187
# [13] = not given; remark: listed apart in the source
compound,measurement,setting,value
"CC(CN1CC(=O)NC(=O)C1)N1CC(=O)NC(=O)C1 (racemic) [ICRF 159, (±)-1,2-bis(3,5-dioxopiperazinyl-1-yl)propane]",anti-tumor effect as single agent,[1],little effect against human tumors
same,solubility,,low solubility
same,doxorubicin cardioprotection,[2],shown promise
"O=C(O)CN(CCN(CC(=O)O)CC(=O)O)CC(=O)O [EDTA, ethylenediaminetetraacetic acid]",erythrocyte ghost destruction by iron-doxorubicin complex,[3],can prevent erythrocyte ghost destruction
CC(=O)N[C@@H](CS)C(=O)O [N-acetyl cysteine],cardioprotection against doxorubicin-induced toxicity,[4],did not result in significant cardioprotection
"O=c1[nH]cc(F)c(=O)[nH]1 [Fluorouracil, fluorouracil]",oral absorption,[5],very poor absorption
COc1cccc2c1C(=O)c1c(O)c3c(c(O)c1C2=O)C[C@@](O)(C(=O)CO)C[C@@H]3O[C@H]1C[C@H](N)[C@H](O)[C@H](C)O1 [doxorubicin],cardiac glutathione peroxidase activity,[6],directly depresses cardiac glutathione peroxidase activity
same,risk for development of cardiotoxicity,[7]; accumulated doses greater than 450 mg/m^2,greater than 10%
same,alopecia (hair loss),"[7]; human, in vivo",occurs frequently
same,nausea and vomiting,"[7]; human, in vivo",occur regularly
same,peak of myelosuppression,"[7]; human, in vivo",approximately 14±2 days
same,recovery from myelosuppression,"[7]; human, in vivo",15 to 18 days
same,cardiotoxicity on prolonged infusion,"[7]; infusion over extended periods, e.g., 96 hours",small but measurable decrease in cardiotoxicity
same,patients developing unacceptable clinical toxicity,[7]; total cumulative dose 450 mg/m^2,5-10%
same,animals with myocardial lesions,[8],eight of nine
"C[C@@H](CN1CC(=O)NC(=O)C1)N1CC(=O)NC(=O)C1 [ICRF 187, (+)-1,2-bis(3,5-dioxopiperazinyl-1-yl)propane]",daunorubicin lethality and cardiotoxicity,[9],a reduction of lethality and cardiotoxicity
same,chronic daunorubicin cardiotoxicity,[10],reduced
same,Adriamycin-induced chronic cardiotoxicity,[11],prevented cardiotoxicity in all treated animals
same,dogs with no abnormalities in the hearts,[12],three of six
same,dogs with minimal heart lesions,[12]; six dogs,three
same,"SGOT and SGPT, vomiting, alopecia",[13]; 1500 mg/m^2,"mild elevations of SGOT (serum glutamate-oxalate transaminase) and SGPT (serum glutamic-pyruvic transaminase), occasional vomiting and some alopecia"
same,predominant adverse effects,[13]; 1500 mg/m^2,leukopenia and thrombocytopenia
same,dose limiting toxicity,"[13]; administered three times daily, every three days, only chemotherapeutic agent",1500 mg/m^2
same,dose limiting toxicity,"[13]; daily, for three consecutive days every three weeks",1500 mg/m^2
same,anti-tumor effect as single agent,[1],little effect against human tumors
same,solubility,,more water soluble
same,doxorubicin cardioprotection,[2],shown promise
Cc1c(C)c2c(c(C)c1O)CCC(C)(CCCC(C)CCCC(C)CCCC(C)C)O2 (stereo not drawn) [Alpha-tocopherol],cardioprotection against doxorubicin-induced toxicity,[4],did not result in significant cardioprotection
